System: T4 viral receptors
Test: General statements: binding to T4 viral receptors / inhibition of gp 120 binding to brain membranes
Procedure: Radiolabeling of gp 120, Preparation of Brain Membranes, Binding and Crosslinking of gp120 to Receptor, and Immunoprecipitation of T4 Antigen. HTLV-IIIb isolate of HIV was propaged in H9 cells, and the gp120 was isolated by immunoaffinity chromatography and preparative NaDodSO₄/PAGE. Purified gp120 was labeled with ¹²⁵I by the chloramine-T method.
Fresh human, monkey, and rat hippocampus were quickly homogenized (Polytron, Brinkmann Instruments) in 100 vol of ice-cold 50 mM Hepes (pH 7.4). The membranes collected by centrifugation (15,000 x g) were washed in the original buffer volume and were used fresh or stored at -70°C. Before use, brain membranes and highly purified T cells (ref. 16; gift of Larry Wahl) were preincubated for 15-30 min in phosphate-buffered saline (PBS). Membranes derived from 2mg (initial wet weight) of brain (≈100µg of protein) were incubated with 28,000 cpm of ¹²⁵I-gp120 for 1 hr at 37°C in 200 µl (final volume) of 50 mM Hepes containing 0.1% bovine serum albumin and the peptidase inhibitors bacitracin (0.005%), aprotinin (0.005%), leupeptin (0.001%), and chymostatin (0.001%). Incubations were rapidly vacuum-filtered and counted to determine the receptor-bound material.

**Q.** For “CYS-THR-THR-ASN-TYR-THR-CYS (CTTNYTC; printed: CYS-THR-THR-ASN-TYR-THR-CYS) [seven amino acid peptide]”, which “activity (test not specified)” value is on record?
**A.** Its value is “active”.
